Laboratory results as given in patent US11160887B2, “Compositions for use in diagnosing and treating melanoma, including metastatic melanoma and methods related to same” (UNM RAINFOREST INNOVATIONS, priority 2008, dated 2021).

How the values were obtained:
[1] = system: B16/F10 pulmonary melanoma metastases; format: in vivo, mouse
Procedure: Metastatic Melanoma Imaging: A pulmonary metastatic melanoma-bearing mouse was used for [^18F]FDG PET imaging 16 days after the cell injection and used for ^111In-DOTA-GlyGlu-CycMSH SPECT/CT imaging on next day (a time interval of 26 h) to compare the difference in detection efficiency between [^18F]FDG and ^111In-DOTA-GlyGlu-CycMSH. The mouse was injected with 35.15 MBq of commercial [^18F]FDG (Biotech, N. Mex.) via the tail vein. At 1 h post-injection, the mouse was anesthetized with 1.5% isoflurane and placed in the prone position near the center of the field of view of small animal PET (LabPET™) (Gamma Medica-Ideas, Sherbrooke, Quebec). A 30-min static scan was acquired, and the image was reconstructed by maximum likelihood estimation method (MLEM). The mouse was returned to the cage for recovery after the ^18F-FDG PET imaging study was completed. The same mouse was injected with 24.05 MBq of ^111In-DOTA-GlyGlu-CycMSH via the tail vein 24 h after the ^18F-FDG PET imaging study. The mouse was anesthetized with 1.5% isoflurane for small animal SPECT/CT (Nano-SPECT/CT®, Bioscan) imaging 2 h post-injection. The 6-min CT imaging was immediately followed by the focused SPECT imaging of lung. The SPECT scans of 24 projections were acquired and total acquisition time was 45 min. After the focused lung imaging, the mouse was sacrificed with CO2 inhalation for whole-body SPECT/CT imaging. The 9-min CT imaging was immediately followed by the SPECT imaging of whole-body. Reconstructed data from SPECT and CT were visualized and co-registered using InVivoScope (Bioscan, Washington D.C.). Necropsy analysis of the mouse was performed to confirm the pulmonary metastatic melanoma lesions after the SPECT/CT imaging studies were completed. To monitor the development of pulmonary melanoma metstases with ^111In-DOTA-GlyGlu-CycMSH, a pulmonary metastatic melanoma-bearing mouse was injected with 10.36 MBq of ^111In-DOTA-GlyGlu-CycMSH through the tail vein for small animal SPECT/CT imaging 20 days after the cell injection. […]

[2] = system: melanoma metastases smaller than 5 mm; conditions: literature (5); cited from earlier work

2-[^18F]fluoro-2-deoxy-D-glucose [[^18F]FDG]
detection of pulmonary metastatic melanoma lesions by imaging ([1]; SPECT/CT 2 h post-injection (111In peptide) or PET 1 h post-injection ([18F]FDG), same mouse, 16-17 days post the cell injection): failed in identifying the pulmonary melanoma metastases | accumulation of activity in normal organs in whole-body image ([1]; mouse, in vivo): much higher normal organ accumulation | melanoma metastases smaller than 5 mm detected by PET imaging [2]: 23%
